Experimental data from patent publication US10316049B2, “Tank-binding kinase inhibitor compounds” (Gilead Sciences, Inc., priority 2015, dated 2019).

Legend:
TBK1 = target: T1, TBK1 (Homo sapiens, UniProt Q9UHD2); assay: TR-FRET enzymatic activity assay, TBK1; type: biochemical; note: full length recombinant TBK1 at 2.5 nM
T1 construct: TBK1 and IKKε were expressed and purified as full length recombinant proteins; made in house
T1 sequence (Q9UHD2 1-729): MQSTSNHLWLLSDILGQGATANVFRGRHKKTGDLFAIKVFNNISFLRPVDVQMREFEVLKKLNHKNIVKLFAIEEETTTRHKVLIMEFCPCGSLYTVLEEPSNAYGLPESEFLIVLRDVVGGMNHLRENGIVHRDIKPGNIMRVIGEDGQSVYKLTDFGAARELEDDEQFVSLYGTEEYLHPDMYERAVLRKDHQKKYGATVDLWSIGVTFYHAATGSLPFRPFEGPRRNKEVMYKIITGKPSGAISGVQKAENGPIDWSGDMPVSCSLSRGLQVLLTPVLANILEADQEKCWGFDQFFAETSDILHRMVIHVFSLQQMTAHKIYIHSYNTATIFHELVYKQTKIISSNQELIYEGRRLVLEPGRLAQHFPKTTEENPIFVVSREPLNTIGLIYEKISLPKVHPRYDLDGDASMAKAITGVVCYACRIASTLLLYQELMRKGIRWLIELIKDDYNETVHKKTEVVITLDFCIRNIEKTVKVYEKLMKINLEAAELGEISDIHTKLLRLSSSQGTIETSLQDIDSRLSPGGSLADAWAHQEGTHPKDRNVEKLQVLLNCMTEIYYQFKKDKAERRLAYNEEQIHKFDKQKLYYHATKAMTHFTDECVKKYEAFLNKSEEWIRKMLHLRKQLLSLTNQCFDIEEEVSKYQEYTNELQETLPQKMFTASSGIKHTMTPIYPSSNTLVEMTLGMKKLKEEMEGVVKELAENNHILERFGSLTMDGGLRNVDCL
Experimental: (§1) Biological Assay for TBK1 and IKKε:
(§2) Enzymatic activity of IKKε and TBK1 was measured using a homogeneous time resolved fluorescence resonance energy transfer (TR-FRET) assay that monitors enzyme dependent phosphorylation of a biotinylated serine/threonine peptide substrate. An increase in the amount of phosphorylated peptide results in an increase in TR-FRET signal. TBK1 and IKKε were expressed and purified as full length recombinant proteins. Detection reagents for the assay were purchased from Cisbio. […] After an assay reaction time of 240 minutes at 25° C., reactions were terminated with EDTA.
(§3) Amount of phosphorylated peptide was determined by the addition of 125 nM streptavidin XL665 and europium cryptate labeled anti-phospho monoclonal antibody and the resulting TR-FRET signal was recorded on an Envision plate reader (Ex: 340 nm; Em: 615/665 nm; 100 μs delay and 200 μs read window). Data was normalized based on a positive (1 μM Staurosporine) and negative (DMSO) controls and IC50 values calculated from the fit of the dose-response curves to a four-parameter equation. All IC50 values represent geometric mean values of a minimum of four determinations. These assays generally produced results within 3-fold of the reported mean.

IKKε = target: T2, IKKε (Homo sapiens, UniProt Q14164); assay: TR-FRET enzymatic activity assay, IKKε; type: biochemical; conditions: read-out: IKKϵ IC50; note: full length recombinant IKKε at 0.3 nM
T2 construct: TBK1 and IKKε were expressed and purified as full length recombinant proteins; made in house
T2 sequence (Q14164 1-716): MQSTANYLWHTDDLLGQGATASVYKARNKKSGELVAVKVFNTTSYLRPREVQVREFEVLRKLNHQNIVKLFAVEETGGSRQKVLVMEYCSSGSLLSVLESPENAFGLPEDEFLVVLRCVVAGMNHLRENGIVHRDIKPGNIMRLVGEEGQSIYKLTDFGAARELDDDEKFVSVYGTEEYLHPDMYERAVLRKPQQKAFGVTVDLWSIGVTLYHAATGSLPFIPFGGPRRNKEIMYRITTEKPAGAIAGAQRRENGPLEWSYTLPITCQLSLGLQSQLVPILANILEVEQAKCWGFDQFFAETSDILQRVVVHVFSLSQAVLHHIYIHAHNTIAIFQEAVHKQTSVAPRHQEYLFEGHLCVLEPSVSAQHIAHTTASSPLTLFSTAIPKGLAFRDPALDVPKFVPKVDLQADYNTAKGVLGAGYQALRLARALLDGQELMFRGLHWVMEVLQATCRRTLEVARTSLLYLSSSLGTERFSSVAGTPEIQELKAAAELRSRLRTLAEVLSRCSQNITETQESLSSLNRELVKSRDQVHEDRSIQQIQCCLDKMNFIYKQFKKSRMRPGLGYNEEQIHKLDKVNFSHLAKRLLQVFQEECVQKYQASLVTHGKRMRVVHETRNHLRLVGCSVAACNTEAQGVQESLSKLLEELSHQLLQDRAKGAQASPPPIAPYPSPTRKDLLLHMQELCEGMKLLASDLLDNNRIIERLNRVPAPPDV
Experimental: as §1
as §2, with “An increase in the amount of phosphorylated peptide results in an increase in TR-FRET signal.” left out
as §3, with “determinations.” for “determinations. These assays generally produced results within 3-fold of the reported mean.”

SMILES | IC50 (TBK1) | IC50 (IKKε)
N#Cc1cc(-c2cc(NC(=O)C3CC3)ncn2)ccc1OC1CCOCC1 [Example 6, N-(6-(3-cyano-4-((tetrahydro-2H-pyran-4-yl)oxy)phenyl)pyrimidin-4-yl)cyclopropanecarboxamide] | 48.5 nM | 298 nM
N#Cc1cc(-c2ccnc(NC(=O)C3CC3(F)F)c2)ccc1O[C@H]1CCN(C(=O)CO)C[C@H]1F (stereo partly drawn) [Example 58, N-(4-(3-cyano-4-(((3R,4S)-3-fluoro-1-(2-hydroxyacetyl)piperidin-4-yl)oxy)phenyl)pyridin-2-yl)-2,2-difluorocyclopropane-1-carboxamide] | 48.6 nM | 30.1 nM
N#Cc1cc(-c2cc(NC(=O)C3CC3)ncn2)ccc1O[C@H]1CCN(C(=O)c2nnc[nH]2)C[C@H]1F [Example 28, N-(6-(3-cyano-4-(((3R,4S)-3-fluoro-1-(4H-1,2,4-triazole-3-carbonyl)piperidin-4-yl)oxy)phenyl)pyrimidin-4-yl)cyclopropanecarboxamide] | 8 nM | 12.4 nM
Cc1n[nH]c(C(=O)N2CC[C@H](Oc3ccc(-c4cc(NC(=O)C5CC5)ncn4)cc3C#N)C(F)(F)C2)n1 [Example 34, (S)—N-(6-(3-cyano-4-((3,3-difluoro-1-(3-methyl-1H-1,2,4-triazole-5-carbonyl)piperidin-4-yl)oxy)phenyl)pyrimidin-4-yl)cyclopropanecarboxamide] | 4.2 nM | 4.6 nM
N#CCC(=O)N1CC[C@H](Oc2ccc(-c3ccnc(NC(=O)C4CC4)c3)cc2C#N)C(F)(F)C1 [Example 13, (S)—N-(4-(3-cyano-4-((1-(2-cyanoacetyl)-3,3-difluoropiperidin-4-yl)oxy)phenyl)pyridin-2-yl)cyclopropanecarboxamide] | 12.4 nM | 44 nM
N#Cc1cc(-c2ccnc(NC(=O)C3CC3)c2)ccc1N1CCC[C@@H]1C(N)=O [Example 95, (R)-1-(2-cyano-4-(2-(cyclopropanecarboxamido)pyridin-4-yl)phenyl)pyrrolidine-2-carboxamide] | 258 nM | > 1000 nM
N#Cc1cc(-c2ccnc(NC(=O)C3CC3)c2)ccc1N1CCC[C@H]1CO [Example 93, (S)—N-(4-(3-cyano-4-(2-(hydroxymethyl)pyrrolidin-1-yl)phenyl)pyridin-2-yl)cyclopropanecarboxamide] | 70.3 nM | 508 nM
N#Cc1cc(-c2ccnc(NC(=O)C3CC3c3c[nH]cn3)c2)ccc1O[C@H]1CCN(C(=O)CO)C[C@H]1F (stereo partly drawn) [Example 81, N-(4-(3-Cyano-4-(((3R,4S)-3-fluoro-1-(2-hydroxyacetyl)piperidin-4-yl)oxy)phenyl)pyridin-2-yl)-2-(1H-imidazol-4-yl)cyclopropane-1-carboxamide] | 18.8 nM | 47 nM
N#Cc1cc(-c2ccnc(NC(=O)[C@@H]3C[C@H]3c3ccccc3)c2)ccc1OC1CCOCC1 [Example 87, (1R,2R)—N-(4-(3-cyano-4-((tetrahydro-2H-pyran-4-yl)oxy)phenyl)pyridin-2-yl)-2-phenylcyclopropane-1-carboxamide] | 426 nM | 777 nM
N#Cc1cc(-c2ccnc(NC(=O)[C@H]3C[C@H]3F)c2)ccc1N1CCCC1 [Example 64, (1R,2R)—N-(4-(3-cyano-4-(pyrrolidin-1-yl)phenyl)pyridin-2-yl)-2-fluorocyclopropane-1-carboxamide] | 85.3 nM | 578 nM
N#Cc1cc(-c2ccnc(NC(=O)C3CC3)c2)ccc1O[C@H]1CCN(C(=O)CO)CC1(F)F [Example 10, (S)—N-(4-(3-cyano-4-((3,3-difluoro-1-(2-hydroxyacetyl)piperidin-4-yl)oxy)phenyl)pyridin-2-yl)cyclopropanecarboxamide] | 4.2 nM | 7.4 nM

Next, values leading:

IC50 (TBK1) | IC50 (IKKε) | SMILES
99.3 nM | > 1000 nM | N#Cc1cc(-c2ccnc(NC(=O)[C@H]3C[C@@H]3c3cccc(F)c3)c2)ccc1OC1CCOCC1 (relative stereo) [Example 119, (1,2-Trans)-N-(4-(3-cyano-4-((tetrahydro-2H-pyran-4-yl)oxy)phenyl)pyridin-2-yl)-2-(3-fluorophenyl)cyclopropane-1-carboxamide]
18.9 nM | 31.4 nM | Cn1cc([C@@H]2C[C@H]2C(=O)Nc2cc(-c3ccc(O[C@H]4CCN(C(=O)CO)C[C@H]4F)c(C#N)c3)ccn2)cn1 (single isomer, unassigned) [Example 125]
317 nM | 737 nM | N#Cc1cc(-c2cc(NC(=O)C3CC3)ncn2)ccc1O[C@@H]1CCN(C(=O)CO)CC1(F)F [Example 110, (R)—N-(6-(3-cyano-4-((3,3-difluoro-1-(2-hydroxyacetyl)piperidin-4-yl)oxy)phenyl)pyrimidin-4-yl)cyclopropanecarboxamide]
6.6 nM | 11.6 nM | Cn1cc([C@@H]2C[C@H]2C(=O)Nc2cc(-c3ccc(O[C@H]4CCN(C(=O)[C@@H](O)CO)CC4(F)F)c(C#N)c3)ccn2)cn1 [Example 131, (1,2-Trans)-N-(4-(3-cyano-4-(((S)-1-((S)-2,3-dihydroxypropanoyl)-3,3-difluoropiperidin-4-yl)oxy)phenyl)pyridin-2-yl)-2-(1-methyl-1H-pyrazol-4-yl)cyclopropane-1-carboxamide]
7.1 nM | 9 nM | N#Cc1cc(-c2cc(NC(=O)[C@@H]3C[C@H]3c3cccnc3)ncn2)ccc1O[C@H]1CCN(C(=O)[C@@H](O)CO)CC1(F)F [Example 144, (1,2-Trans)-N-(6-(3-cyano-4-(((S)-1-((S)-2,3-dihydroxypropanoyl)-3,3-difluoropiperidin-4-yl)oxy)phenyl)pyrimidin-4-yl)-2-(pyridin-3-yl)cyclopropane-1-carboxamide]
12.8 nM | 39.3 nM | C[C@H](N)C(=O)OCC(=O)N1CC[C@H](Oc2ccc(-c3cc(NC(=O)C4CC4)ncn3)cc2C#N)C(F)(F)C1 [Example 159, 2-((S)-4-(2-cyano-4-(6-(cyclopropanecarboxamido)pyrimidin-4-yl)phenoxy)-3,3-difluoropiperidin-1-yl)-2-oxoethyl L-Alaninate]
301 nM | > 1000 nM | CC(Oc1ccc(-c2cc(NC(=O)C3CC3)ncn2)cc1C#N)C(F)(F)F (stereo not drawn) [Example 106, N-(6-(3-cyano-4-((1,1,1-trifluoropropan-2-yl)oxy)phenyl)pyrimidin-4-yl)cyclopropanecarboxamide]
